# How the values were obtained:
# [1] = system: GFPP1-10 expressing A549 cells; experiment: mCherry and GFP expression in presence and absence of TMP; assay type: cell-based; conditions: cells transfected with mCherry-DHFR-P2A-GFPβ11, following addition of TMP, FIG. 7B
# Description: The mCherry-DHFR-P2A-GFPβ11 peptide expression unit was introduced into GFPP1-10 expressing A549 cells and mCherry and GFP expression levels were examined in the presence and absence of TMP.
# Indeed, the percentage of cells expressing mCherry upon TMP treatment was similar in cells transfected with an m-Cherry only plasmid and cells transfected with a plasmid comprising the mCherry-DHFR-P2A-GFPβ11 peptide expression unit (FIGS. 7C and 7E).
# H9c2 cells [2] = experiment: Mitochondrial respiration, Seahorse XF Cell Mito Stress Test flux analysis; assay type: cell-based; conditions: doxorubicin treatment; for mitochondrial respiration (oxygen consumption rate): FIG. 9I; for basal respiration: FIG. 9J; for ATP production: FIG. 9J-9M; for maximum respiration: FIG. 9K; for spare respiratory capacity: FIG. 9M; for proton leakage: FIG. 9N; for non-mitochondrial oxygen consumption: FIG. 9O
# Protocol: Next, the effect of P110 expression on mitochondrial hyperfission was evaluated in the context of mitochondrial respiratory function. Briefly, oligomycin (2 μM), carbonyl cyanide p-trifluoromethoxyphenyl hydrazone (FCCP, 2 μM) and rotenone/antimycin A (0.5 μM), which were adjusted using the reagents in the Seahorse XF Cell Mito Stress Test Kit (103015-100, Agilent Technologies), were sequentially added to each well with 1×10^5 cells after baseline measurements with an XFe96 extracellular flux analyzer (Agilent Technologies, Santa Clara, CA, USA), and data were presented as oxygen consumption rate (pmol/min).
# H9c2 cells [3] = experiment: Doxorubicin-induced hyperfission (MiNA) and cell death (DAPI/annexin5 FACS); assay type: cell-based
# Protocol: The anti-apoptotic effect of peptide expression unit mRNA comprising the P110 coding sequence was assessed in H9c2 cells upon doxorubicin exposure, a treatment that induces mitochondrial stress, hyperfission, and cell death. Briefly, H92c cells were seeded on day 0 and lipofected with an mRNA of a peptide expression unit comprising P110 coding sequence on day 1 and treated with TMP. After 12 hours, the medium was changed, and the cells were treated with doxorubicin for 3 to 6 hours. As with LPS exposure assessments in Example 4, the effect of P110 on hyperfission was assessed via mitotracker green staining, followed by MiNA.
# The increase in doxorubicin-induced fission was accompanied by an increase in footprint, a measure of mitochondrial mass, due to the expression of P110 from mRNA expression units, and by an increase in the length, number, and area of branching (FIGS. 9A-9F).
# Drp1-Fis1 = experiment: Immunoprecipitation with Fis1 followed by immunoblotting with Drp1; assay type: cell-based; conditions: doxorubicin treatment, FIG. 10I-10K
# Chain of Drp1-Fis1 (O00429 whole entry): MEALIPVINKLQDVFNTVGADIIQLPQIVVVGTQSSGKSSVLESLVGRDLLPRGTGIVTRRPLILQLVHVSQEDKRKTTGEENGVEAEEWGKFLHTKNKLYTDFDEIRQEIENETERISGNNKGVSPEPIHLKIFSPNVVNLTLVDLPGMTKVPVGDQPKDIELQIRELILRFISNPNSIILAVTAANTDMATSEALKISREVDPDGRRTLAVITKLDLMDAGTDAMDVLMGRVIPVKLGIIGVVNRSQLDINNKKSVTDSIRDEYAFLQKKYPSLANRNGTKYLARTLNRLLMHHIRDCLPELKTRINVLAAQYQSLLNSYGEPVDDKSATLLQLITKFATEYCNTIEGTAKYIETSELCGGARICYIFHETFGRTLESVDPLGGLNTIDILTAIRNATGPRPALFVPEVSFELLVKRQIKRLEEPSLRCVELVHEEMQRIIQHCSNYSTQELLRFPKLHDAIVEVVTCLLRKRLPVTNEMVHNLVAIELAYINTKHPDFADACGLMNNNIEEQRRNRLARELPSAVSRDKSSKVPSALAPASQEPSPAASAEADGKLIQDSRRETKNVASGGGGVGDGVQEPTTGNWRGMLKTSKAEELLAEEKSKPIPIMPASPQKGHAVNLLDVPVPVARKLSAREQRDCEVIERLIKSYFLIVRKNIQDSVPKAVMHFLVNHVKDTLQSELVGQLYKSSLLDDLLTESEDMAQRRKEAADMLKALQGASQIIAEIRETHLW
# Protocol: Association of Drp1 and Fis1 is an intracellular PPI that is associated with mitochondrial dysfunction. To determine whether interaction of Fis1 and Drp1 was associated with the accumulation of Drp1 at the mitochondrial membrane, immunoprecipitation with Fis1 followed by immunoblotting with Drp1 was performed.
# H9c2 cells [4] = experiment: Western blot of apoptosis-associated proteins (cleaved caspase-3, cytochrome c, mitochondrial Drp1); assay type: cell-based; conditions: for Drp1 in mitochondrial fractions (accumulation/aggregation): doxorubicin exposure, FIG. 10G-10H
# Protocol: (§1) P110-expressing cells counteracted doxorubicin-induced apoptosis as well as gene transfer-associated induction of cell death (FIGS. 10A-10B). Next, doxorubicin-induced activation of caspase-3, which is a cysteine-aspartic acid protease that plays a central role in the execution-phase of cell apoptosis, was evaluated.
# Hyperfission-associated release of cytochrome c from mitochondria triggers apoptosis; therefore, the release of cytochrome c in response to doxorubicin was evaluated. […] Given that P110 inhibits the recruitment of Drp1 to the mitochondrial membrane during fission, Drp1 in mitochondrial fractions were evaluated to determine whether the introduction of P110 mRNA affected this mechanism.
# H9c2 cells [5] = experiment: LPS-induced hyperfission: mitotracker green/MiNA, MitoSOX, TMRM; assay type: cell-based; conditions: for mitochondrial ROS (MitoSOX): FIG. 8J-8K
# Protocol: Next, lipopolysaccharide (LPS) was used as an external stressor to trigger hyperfission. Briefly, H92c cells were seeded on day 0 and lipofected with an mRNA of a peptide expression unit comprising P110 coding sequence on day 1 and treated with TMP. After 12 hours, the medium was changed, and the cells were treated with LPS for 12 hours and mitochondrial morphology of cells was evaluated using mitotracker green staining and Mitochondrial Network Analysis (MiNA). LPS-induced changes in mitochondrial reactive oxygen species (ROS) production were evaluated using MitoSOX staining. LPS-induced changes in mitochondrial membrane potential were evaluated using TMRM staining. For the purposes of this assessment, mCherry-positive cells were assumed to express transgenic P110, whereas mCherry-negative cells were assumed to lack transgenic P110 and were assessed separately (FIG. 8D). […] LPS treatment was associated with an increase in mitochondrial ROS, which was inhibited in P110-expressing cells (FIGS. 8J-8K), and with an increase in mitochondrial membrane potential per unit volume (FIGS. 8L-8N). Taken together, expression of P110 in cells suppressed mitophagy-related changes induced by LPS treatment.
# H9c2 cells [6] = experiment: Doxorubicin-induced apoptosis, FACS with DAPI and Annexin V; assay type: cell-based; conditions: doxorubicin-treated cells, FIG. 10A-10B
# Protocol: as §1
# [7] = target: GFP β strand 1-10 (GFPβ1-10); experiment: cell-based or functional assay
# [8] = doxorubicin 3 to 6 hours, FIG. 9A-9F
Compound,mitochondrial respiration (oxygen consumption rate) (H9c2 cells [2]),basal respiration (H9c2 cells [2]),ATP production (H9c2 cells [2]),maximum respiration (H9c2 cells [2]),spare respiratory capacity (H9c2 cells [2]),proton leakage (H9c2 cells [2]),non-mitochondrial oxygen consumption (H9c2 cells [2]),Drp1 co-immunoprecipitated with Fis1 (Drp1-Fis1),Drp1 in mitochondrial fractions (accumulation/aggregation) (H9c2 cells [4]),mitochondrial ROS (MitoSOX) (H9c2 cells [5]; LPS treatment 12 hours),also measured
"COc1cc(Cc2cnc(N)nc2N)cc(OC)c1OC [TMP, trimethoprim]",,,,,,,,,,,mCherry expression (FACS) [1]: increased sharply
COc1cccc2c1C(=O)c1c(O)c3c(c(O)c1C2=O)C[C@@](O)(C(=O)CO)C[C@@H]3O[C@H]1C[C@H](N)[C@H](O)[C@H](C)O1 [doxorubicin],decreased,significantly decreased,significantly decreased,significantly decreased,significantly decreased,decrease,significantly decreased,significantly enhanced,strong accumulation,,"cell death, DAPI/annexin5 double positive cells (FACS) (H9c2 cells [3]; doxorubicin-treated H9c2 cells, FIG. 9G-9H): ~15 % of cells"
DLLPRGT [P110],attenuated,significant attenuation,significant attenuation,significant attenuation,comparable to that observed in untreated control cells,slightly improved,significant attenuation,restored to almost control levels,significantly prevented,inhibited,"indications of hyperfission: branching length, area of branching points, number of branching points (MiNA) (H9c2 cells [5]; mCherry-positive cells, LPS 12 hours, FIG. 8D-8I): reversed indications of hyperfission; doxorubicin-induced apoptosis (DAPI/Annexin V FACS) (H9c2 cells [6]): counteracted; footprint, a measure of mitochondrial mass (MiNA) (H9c2 cells [3]; [8]): increase; length, number, and area of branching (MiNA) (H9c2 cells [3]; [8]): increase; non-mitochondrial apoptotic pathways (H9c2 cells [4]; doxorubicin): unaffected; cytochrome c release (H9c2 cells [4]; doxorubicin, FIG. 10E-10F): completely suppressed; cleaved caspase-3 expression (western blot) (H9c2 cells [4]; effects of gene transfer method and doxorubicin, FIG. 10C-10D): reduced"
GFP β strand 11 (GFPβ11) (peptide),,,,,,,,,,,"GFP-positive fraction of mCherry-positive cells (split GFP complementation), FACS, H9c2 cells [7]: 40%"
lipopolysaccharide [LPS],,,,,,,,,,increase,"mitochondrial membrane potential per unit volume (TMRM) (H9c2 cells [5]; LPS treatment 12 hours, FIG. 8L-8N): increase"

# Reference: patent US20260242414A1, “PEPTIDE EXPRESSION CONSTRUCTS AND USES THEREOF” (KYOTO PREFECTURAL PUBLIC UNIVERSITY CORPORATION, priority 2023, published 2026)
